Reference: PubChem BioAssay AID2060912 (Molecular Pharmacology Branch, DTP, NCI, 2025)

System: HUVEC/MSC spheroids viability
Experiment: Human HUVEC/MSC cell line growth inhibition [KRAS2];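 on viability, T/C: percent of DMSO vehicle control luminescence so 100% = untreated viability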
Details: for IC50: curve of first compound; for viability, T/C: stronger effect = lower value
Outline: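 HUVEC + hMSC stromal spheroids only, no malignant cells; 37 °C, 5% CO2. Drugs singly and in pairs, half-log series down from clinical Cmax (max 10 microM if Cmax undetermined).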

[1] = second compound 0.0316 µM, first compound 0.0316 µM
[2] = second compound 0.0316 µM, first compound 0.1 µM
[3] = second compound 0.0316 µM, first compound 0.316 µM
[4] = second compound 0.0316 µM, first compound 1 µM
[5] = second compound 0.1 µM, first compound 0.0316 µM
[6] = second compound 0.1 µM, first compound 0.1 µM
[7] = second compound 0.1 µM, first compound 0.316 µM
[8] = second compound 0.1 µM, first compound 1 µM
[9] = second compound 0.316 µM, first compound 0.0316 µM
[10] = second compound 0.316 µM, first compound 0.1 µM
[11] = second compound 0.316 µM, first compound 0.316 µM
[12] = second compound 0.316 µM, first compound 1 µM
[13] = second compound 1 µM, first compound 0.0316 µM
[14] = second compound 1 µM, first compound 0.1 µM
[15] = second compound 1 µM, first compound 0.316 µM
[16] = second compound 1 µM, first compound 1 µM
[17] = second compound 3.16 µM, first compound 0.0316 µM
[18] = second compound 3.16 µM, first compound 0.1 µM
[19] = second compound 3.16 µM, first compound 0.316 µM
[20] = second compound 3.16 µM, first compound 1 µM
[21] = second compound 10 µM, first compound 0.0316 µM
[22] = second compound 10 µM, first compound 0.1 µM
[23] = second compound 10 µM, first compound 0.316 µM
[24] = second compound 10 µM, first compound 1 µM
[25] = second compound 0.0316 µM, first compound 0.00316 µM
[26] = second compound 0.0316 µM, first compound 0.01 µM
[27] = second compound 0.1 µM, first compound 0.00316 µM
[28] = second compound 0.1 µM, first compound 0.01 µM
[29] = second compound 0.316 µM, first compound 0.00316 µM
[30] = second compound 0.316 µM, first compound 0.01 µM
[31] = second compound 1 µM, first compound 0.00316 µM
[32] = second compound 1 µM, first compound 0.01 µM
[33] = second compound 3.16 µM, first compound 0.00316 µM
[34] = second compound 3.16 µM, first compound 0.01 µM
[35] = second compound 10 µM, first compound 0.00316 µM
[36] = second compound 10 µM, first compound 0.01 µM

Compound `CC1(C)CCC(CN2CCN(c3ccc(C(=O)NS(=O)(=O)c4ccc(NCC5CCOCC5)c([N+](=O)[O-])c4)c(Oc4cnc5[nH]ccc5c4)c3)CC2)=C(c2ccc(Cl)cc2)C1` + CNCc1ccccc1-c1csc(C(C)Nc2nc(C)nc3cc(OC)c(OC)cc23)c1 has an IC50 (second compound 0.0316 µM) of 4270 nM, an IC50 (second compound 0.1 µM) of 4110 nM and an IC50 (second compound 0.316 µM) of 4040 nM. For the same compound, the IC50 (second compound 1 µM) was 4920 nM, the IC50 (second compound 3.16 µM) was 5270 nM and the IC50 (second compound 10 µM) was < 31.6 nM. For the same compound, the viability, T/C [1] was 101%, the viability, T/C [2] was 111% and the viability, T/C [3] was 101%. The viability, T/C [4] was 94.2%, the viability, T/C (second compound 0.0316 µM, first compound 3.16 µM) was 67.1% and the viability, T/C (second compound 0.0316 µM, first compound 10 µM) was 1.69%. The viability, T/C [5] was 87.2%, the viability, T/C [6] was 106% and the viability, T/C [7] was 93.7%. For the same compound, the viability, T/C [8] was 87%, the viability, T/C (second compound 0.1 µM, first compound 3.16 µM) was 63.2% and the viability, T/C (second compound 0.1 µM, first compound 10 µM) was 5.65%. For the same compound, the viability, T/C [9] was 79.8%, the viability, T/C [10] was 76.3% and the viability, T/C [11] was 97.8%. The viability, T/C [12] was 104%, the viability, T/C (second compound 0.316 µM, first compound 3.16 µM) was 62.8% and the viability, T/C (second compound 0.316 µM, first compound 10 µM) was 2.84%. The viability, T/C [13] was 75.4%, the viability, T/C [14] was 73.7% and the viability, T/C [15] was 90.9%. The viability, T/C [16] was 76.6%, the viability, T/C (second compound 1 µM, first compound 3.16 µM) was 80.2% and the viability, T/C (second compound 1 µM, first compound 10 µM) was 2.99%. For the same compound, the viability, T/C [17] was 78.3%, the viability, T/C [18] was 99.6% and the viability, T/C [19] was 82%. It also gave a viability, T/C [20] of 92.2%, a viability, T/C (second compound 3.16 µM, first compound 3.16 µM) of 95.9% and a viability, T/C (second compound 3.16 µM, first compound 10 µM) of 0.31%. It also gave a viability, T/C [21] of 0.33%, a viability, T/C [22] of 0.35% and a viability, T/C [23] of 0.51%. It also gave a viability, T/C [24] of 0.51%, a viability, T/C (second compound 10 µM, first compound 3.16 µM) of 0.36% and a viability, T/C (second compound 10 µM, first compound 10 µM) of 0.57%.
For `CCN1CCN(Cc2ccc(Nc3ncc(F)c(-c4cc(F)c5nc(C)n(C(C)C)c5c4)n3)nc2)CC1` + CNCc1ccccc1-c1csc(C(C)Nc2nc(C)nc3cc(OC)c(OC)cc23)c1, the IC50 (second compound 0.0316 µM) was > 1000 nM, the IC50 (second compound 0.1 µM) was > 1000 nM and the IC50 (second compound 0.316 µM) was > 1000 nM. For the same compound, the IC50 (second compound 1 µM) was > 1000 nM, the IC50 (second compound 3.16 µM) was 563 nM and the IC50 (second compound 10 µM) was < 3.16 nM. The viability, T/C [25] was 100%, the viability, T/C [26] was 93.7% and the viability, T/C [1] was 68.7%. For the same compound, the viability, T/C [2] was 96.5%, the viability, T/C [3] was 107% and the viability, T/C [4] was 140%. It also gave a viability, T/C [27] of 91%, a viability, T/C [28] of 96.2% and a viability, T/C [5] of 83%. The viability, T/C [6] was 85.6%, the viability, T/C [7] was 107% and the viability, T/C [8] was 155%. For the same compound, the viability, T/C [29] was 78.2%, the viability, T/C [30] was 97.7% and the viability, T/C [9] was 79.5%. It also gave a viability, T/C [10] of 92.7%, a viability, T/C [11] of 102% and a viability, T/C [12] of 113%. For the same compound, the viability, T/C [31] was 54.9%, the viability, T/C [32] was 90.8% and the viability, T/C [13] was 91.8%. It also gave a viability, T/C [14] of 81.4%, a viability, T/C [15] of 114% and a viability, T/C [16] of 119%. For the same compound, the viability, T/C [33] was 83.8%, the viability, T/C [34] was 103% and the viability, T/C [17] was 95.5%. It also gave a viability, T/C [18] of 92.8%, a viability, T/C [19] of 123% and a viability, T/C [20] of 0.46%. It also gave a viability, T/C [35] of 0.4%, a viability, T/C [36] of 0.42% and a viability, T/C [21] of 0.47%. It also gave a viability, T/C [22] of 0.41%, a viability, T/C [23] of 0.39% and a viability, T/C [24] of 0.31%.
In the case of `Cn1ncnc1[C@H]1c2n[nH]c(=O)c3cc(F)cc(c23)N[C@@H]1c1ccc(F)cc1` + CNCc1ccccc1-c1csc(C(C)Nc2nc(C)nc3cc(OC)c(OC)cc23)c1, the IC50 (second compound 0.0316 µM) is reported as > 100 nM, the IC50 (second compound 0.1 µM) is reported as > 100 nM and the IC50 (second compound 0.316 µM) is reported as > 100 nM. For the same compound, the IC50 (second compound 1 µM) was > 100 nM, the IC50 (second compound 3.16 µM) was > 100 nM and the IC50 (second compound 10 µM) was < 0.316 nM. For the same compound, the viability, T/C (second compound 0.0316 µM, first compound 0.000316 µM) was 97.8%, the viability, T/C (second compound 0.0316 µM, first compound 0.001 µM) was 85.9% and the viability, T/C [25] was 81.2%. It also gave a viability, T/C [26] of 73.2%, a viability, T/C [1] of 76.8% and a viability, T/C [2] of 78.4%. It also gave a viability, T/C (second compound 0.1 µM, first compound 0.000316 µM) of 93.3%, a viability, T/C (second compound 0.1 µM, first compound 0.001 µM) of 90.2% and a viability, T/C [27] of 90.2%. For the same compound, the viability, T/C [28] was 70.6%, the viability, T/C [5] was 81.8% and the viability, T/C [6] was 79.7%. For the same compound, the viability, T/C (second compound 0.316 µM, first compound 0.000316 µM) was 65.4%, the viability, T/C (second compound 0.316 µM, first compound 0.001 µM) was 90.5% and the viability, T/C [29] was 79.9%. The viability, T/C [30] was 76.5%, the viability, T/C [9] was 76.2% and the viability, T/C [10] was 69.2%. The viability, T/C (second compound 1 µM, first compound 0.000316 µM) was 67.3%, the viability, T/C (second compound 1 µM, first compound 0.001 µM) was 76.9% and the viability, T/C [31] was 67%. For the same compound, the viability, T/C [32] was 75.3%, the viability, T/C [13] was 75.9% and the viability, T/C [14] was 72%. The viability, T/C (second compound 3.16 µM, first compound 0.000316 µM) was 89%, the viability, T/C (second compound 3.16 µM, first compound 0.001 µM) was 86.8% and the viability, T/C [33] was 94.7%. For the same compound, the viability, T/C [34] was 80.7%, the viability, T/C [17] was 77.8% and the viability, T/C [18] was 75%. For the same compound, the viability, T/C (second compound 10 µM, first compound 0.000316 µM) was 0.29%, the viability, T/C (second compound 10 µM, first compound 0.001 µM) was 0.28% and the viability, T/C [35] was 0.32%. For the same compound, the viability, T/C [36] was 0.29%, the viability, T/C [21] was 0.31% and the viability, T/C [22] was 0.28%.
